{
  "source": "patent US6906057B1",
  "about": "“Methods for modulating FXR receptor activity” (Allergan, Inc., priority 1999, dated 2005)",
  "key": {"[1]": {"molecular_target": "T1, FXR-RXRm heterodimer (Rattus norvegicus, UniProt Q62735)", "T1 construct": "Full-length recombinant rat FXR and human RXR (or RXRm) cloned into the cloning site of plasmid pCMX; expressed in transfected cells; host or cells: CV-1 cells", "T1 sequence (Q62735 1-469)": "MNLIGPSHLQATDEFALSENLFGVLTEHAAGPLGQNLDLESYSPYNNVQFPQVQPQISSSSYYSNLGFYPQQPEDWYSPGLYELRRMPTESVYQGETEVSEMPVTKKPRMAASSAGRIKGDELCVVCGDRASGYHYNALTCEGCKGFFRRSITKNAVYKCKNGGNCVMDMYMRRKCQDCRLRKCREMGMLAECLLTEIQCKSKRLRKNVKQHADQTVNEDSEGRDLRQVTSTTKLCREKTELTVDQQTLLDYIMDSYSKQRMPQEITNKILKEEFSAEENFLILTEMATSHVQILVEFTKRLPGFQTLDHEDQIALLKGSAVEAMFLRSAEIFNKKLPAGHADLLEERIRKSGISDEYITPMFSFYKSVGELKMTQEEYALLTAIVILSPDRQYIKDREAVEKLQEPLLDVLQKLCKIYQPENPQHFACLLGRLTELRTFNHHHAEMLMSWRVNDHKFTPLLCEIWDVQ", "T1 sequence (P19793 1-462 D322P partner)": "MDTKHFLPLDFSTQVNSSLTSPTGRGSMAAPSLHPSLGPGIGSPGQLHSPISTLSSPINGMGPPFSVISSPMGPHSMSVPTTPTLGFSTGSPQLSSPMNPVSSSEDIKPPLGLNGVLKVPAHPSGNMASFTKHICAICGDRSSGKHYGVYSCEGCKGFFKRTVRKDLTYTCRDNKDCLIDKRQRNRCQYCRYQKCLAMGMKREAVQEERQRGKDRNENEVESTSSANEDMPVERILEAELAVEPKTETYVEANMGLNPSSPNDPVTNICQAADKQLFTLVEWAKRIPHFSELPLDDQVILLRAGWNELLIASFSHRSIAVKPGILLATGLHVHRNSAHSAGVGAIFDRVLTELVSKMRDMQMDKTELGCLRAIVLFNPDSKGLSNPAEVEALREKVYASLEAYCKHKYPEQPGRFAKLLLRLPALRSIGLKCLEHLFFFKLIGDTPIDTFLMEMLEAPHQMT", "test": "EcRE-TK-Luc transactivation in CV-1 cells cotransfected with FXR and RXRm", "assay_type": "cell-based", "conditions": "for FXR transactivating activity: Example 3, FIG. 3, FXR-RXRm, 100 nM unless otherwise indicated, AGN 10 10 μM; for transactivation activity, cells cotransfected with FXR and RXRm: Example 5, FIG. 6", "excerpt": "Because FXR is known to bind to its response element as a heterodimer with RXR, and because the heterodimer can be activated by ligands to RXR, a mutant RXRα protein (RXRm; also referred to as D322P in the Figures) was constructed containing a single point mutation (Asp322 to Pro) in the ligand binding domain of RXR. The use of FXR-RXRm heterodimers, permits unambiguous identification of modulators of FXR activity amongst test compounds.\n(§1) Full-length recombinant rat FXR and human RXR (or RXRm) cloned into the cloning site of plasmid pCMX were cotransfected into CV-1 cells using the transient transfection method substantially as described above. Additionally, reporter plasmids were cotransfected with the expression plasmids as described above.\n(§2) Luciferase reporter plasmids TK-Luc (described in Heyman et al., Cell 68:397 (1992), hereby incorporated by reference herein) were constructed by placing the firefly luciferase cDNA coding sequence in frame immediately downstream from the herpes virus thymidine kinase promoter (located at nucleotide residues −105 to +51) of the thymidine kinase nucleotide sequence). Six repeats of the EcRE response element, to which the DNA binding domain (DBD) of FXR binds, was also included upstream of the reporter gene. Further details are provided above.\n(§3) AGN 10 has the structure: [drawing 3]\n(§4) The cells were then lysed as described above, and luciferase activity was measured as an indication of the extent of heterodimer-induced FXR transactivation activity as described above Results are shown in FIG. 2.\nCV-1 cells were cotransfected with mammalian expression vectors encoding full length FXR and RXRm, as well as with the luciferase reporter plasmid used in the last experiment. […] All compounds were dissolved in DMSO, except glycochenodeoxycholic acid, taurochenodeoxycholic acid, taurodeoxycholic acid and taurocholic acid, which were dissolved in phosphate buffered saline (PBS). Following exposure to the compounds, the cells were washed, lysed, and the luciferase activity measured as indicated above.\n(§5) These compounds were assayed for FXR modulating activity using the transactivation assay described above. All compounds were dissolved in DMSO. As above, the reporter plasmid contained 6 copies of the ecdysone response element (EcRE) placed along with the herpes virus thymidine kinase promoter upstream of the firefly luciferase gene. The reporter plasmid was transfected into CV-1 cells, either a) alone, b) with an expression plasmid encoding full length FXR, c) with an expression plasmid encoding full length RXRα, d) with two expression plasmids encoding full length FXR and RXRα respectively, and e) with two expression plasmids encoding full length FXR and RXRm, respectively. Plasmid constructions, transfection, incubation with test compounds, and luciferase activity assays were performed as described in Example 1."}, "[2]": {"molecular_target": "T2, FXR-RXRα heterodimer (UniProt P19793+Q62735)", "T2 construct": "Full-length recombinant rat FXR and human RXR (or RXRm) cloned into the cloning site of plasmid pCMX; expressed in transfected cells; host or cells: CV-1 cells", "T2 sequence (Q62735 1-469)": "T1 sequence (Q62735 1-469)", "T2 sequence (P19793 1-462)": "T1 sequence (P19793 1-462 D322P partner) with P322D", "test": "EcRE-TK-Luc transactivation in CV-1 cells cotransfected with FXR and RXR", "assay_type": "cell-based, rat", "conditions": "for luciferase activity response, cells cotransfected with FXR and RXRα: Example 5, FIG. 6; for FXR activity as stated for panel compounds: Example 5 panel description, JH III 50 μM", "excerpt": "as §1, §2, §3, §4\nTransient cotransfection of full length rat FXR, human RXR and the luciferase reporter plasmid was performed as above. A set of cotransfectant CV-1 cells was incubated in 1, 2, 10, and 20 μM AGN 10. Separate sets of cotransformants were given 1, 10, 20, 100, and 200 μM of either CDCA, DCA or LCA. All compounds were dissolved in DMSO. All transformant cells were permitted to incubate for approximately 44 hours with the indicated compound, then the amount of transactivation activity was measured using the luciferase assay, as indicated above.\nas §5"}, "[3]": {"molecular_target": "T3, FXR-RXRα complex (UniProt P19793+Q62735)", "T3 sequence (Q62735 1-469)": "T1 sequence (Q62735 1-469)", "T3 sequence (P19793 1-462)": "T1 sequence (P19793 1-462 D322P partner) with P322D", "conditions": "Forman et al., Cell 81:687-693 (1995); cited from earlier work"}, "[4]": {"system": "FXR or RXR alone", "conditions": "Forman et al., Cell 81:687-693 (1995); cited from earlier work"}, "[5]": {"conditions": "Example 2, FIG. 2, ~44 hours, AGN 10 5-10 μM, LG 268 100 nM, bovine bile extract"}},
  "note": "Residue numbers refer to the chain shown, from its start.",
  "data": [
    {"compound": "CC1(C)CCC(C)(C)c2cc(/C(=C/c3ccc(C(=O)C(=O)O)cc3)[Si](C)(C)C)ccc21", "note": "[AGN 10]", "values": [
      {"measurement": "FXR-mediated transactivation (luciferase activity), FXR-RXRm cotransfected cells", "setting": "[1]; [5]", "value": "almost as much activity"},
      {"measurement": "FXR transactivating activity", "setting": "[1]; ~44 hours", "value": "measurable FXR transactivating activity"},
      {"measurement": "transactivation activity, cells cotransfected with FXR and RXRm", "setting": "[1]", "value": "significant levels of transctivation activity"},
      {"measurement": "FXR ligand classification from the data", "setting": "[1]; Example 5, conclusion", "value": "FXR agonists"},
      {"measurement": "FXR-mediated transactivation (luciferase activity), FXR-RXR cotransfected cells", "setting": "[2]; [5]", "value": "almost as much activity"},
      {"measurement": "concentration at which FXR agonist activity is at a maximum", "setting": "[2]; Example 4, FIG. 4, rat FXR, human RXR, ~44 hours", "value": 10, "unit": "µM"},
      {"measurement": "luciferase activity response, cells cotransfected with FXR and RXRα", "setting": "[2]", "value": "highest activity response"}
    ]},
    {"compound": "C/C(=C\\c1ccc(C(=O)O)cc1)c1ccc2c(c1)C(C)(C)CCC2(C)C", "note": "[TTNPB]", "values": [
      {"measurement": "transactivation activity, cells cotransfected with FXR and RXRm", "setting": "[1]", "value": "significant levels of transctivation activity"},
      {"measurement": "luciferase activity response, cells cotransfected with FXR and RXRα", "setting": "[2]", "value": "highest activity response"},
      {"measurement": "FXR activity as stated for panel compounds", "setting": "[2]", "value": "has FXR activity"}
    ]},
    {"compound": "CC(C)CCC[C@@H](C)[C@H]1CC[C@H]2[C@@H]3CC=C4C[C@@H](O)CC[C@]4(C)[C@H]3CC[C@]12C", "note": "[cholesterol]", "values": [
      {"measurement": "activation of the FXR-RXR complex", "setting": "[3]", "value": "did not activate"}
    ]},
    {"compound": "CC(C)=CCCC(C)=CCCC(C)=CC=O", "note": "[farnesal]", "values": [
      {"measurement": "activation of the FXR-RXR complex", "setting": "[3]", "value": "somewhat less strongly"}
    ]},
    {"compound": "CC(C)=CCC/C(C)=C/CO", "note": "[geraniol]", "values": [
      {"measurement": "activation of the FXR-RXR complex", "setting": "[3]", "value": "did not activate"}
    ]},
    {"compound": "juvenile hormone III", "values": [
      {"measurement": "activation of the FXR-RXR complex", "setting": "[3]", "value": "activated"},
      {"measurement": "activation of FXR or RXR alone", "setting": "[4]", "value": "does not activate"},
      {"measurement": "FXR activity as stated for panel compounds", "setting": "[2]", "value": "an FXR agonist"}
    ]},
    {"compound": "CC(C)=CCC/C(C)=C/CC/C(C)=C/CC/C=C(\\C)CC/C=C(\\C)CCC=C(C)C", "note": "[squalene]", "values": [
      {"measurement": "activation of the FXR-RXR complex", "setting": "[3]", "value": "did not activate"}
    ]},
    {"compound": "CC1(C)CCC(C)(C)c2cc(C(=O)Nc3ccc(C(=O)O)cc3)ccc21", "note": "[Am 580]", "values": [
      {"measurement": "FXR activity as stated for panel compounds", "setting": "[2]", "value": "does not have FXR activity"}
    ]},
    {"compound": "CC(C)=CCC/C(C)=C/CC/C(C)=C/CC/C(C)=C/CO", "note": "[geranylgeraniol]", "values": [
      {"measurement": "activation of the FXR-RXR complex", "setting": "[3]", "value": "somewhat less strongly"}
    ]},
    {"compound": "C[C@H](CCC(=O)O)[C@H]1CC[C@H]2[C@@H]3C(=O)C[C@@H]4C[C@H](O)CC[C@]4(C)[C@H]3CC[C@]12C", "note": "[7-ketolithocholic acid]", "values": [
      {"measurement": "FXR transactivating activity", "setting": "[1]; ~44 hours", "value": "measurable FXR transactivating activity"}
    ]},
    {"compound": "CC(C)=CCCC(C)=CCCC(C)=CC(=O)O", "note": "[farnesoic acid]", "values": [
      {"measurement": "activation of the FXR-RXR complex", "setting": "[3]", "value": "somewhat less strongly"}
    ]},
    {"compound": "C[C@H](CCC(=O)O)[C@H]1CC[C@H]2[C@@H]3C(=O)C[C@@H]4CC(=O)CC[C@]4(C)[C@H]3CC[C@]12C", "note": "[3-7-diketolithocholic acid, 3,7-diketolithocholic acid]", "values": [
      {"measurement": "FXR transactivating activity", "setting": "[1]; ~44 hours", "value": "measurable FXR transactivating activity"}
    ]}
  ]
}
